From BindingDB's records for doi:10.1021/jm701049p (Seoul National University, 2008) come the findings set out here.

For orientation: Ki means a dissociation constant, usually derived from enzyme kinetics or from competition with a known ligand.

Molecules are shown by their SMILES.

One test deals with Transient receptor potential cation channel subfamily V member 1 (Rattus norvegicus, UniProt O35433). Put plainly: Competition Binding Assay and Inhibition of Ca2+ Uptake Assay. To be noted: pH 7.4; 37 °C. As to the method: Binding assay mixtures were set up and contained [3H] RTX, various concentrations of competing ligands, and rVR1-transfected CHO cells. Nonspecific binding was determined in the presence of 100 nM nonradioactive RTX. After the binding reaction, membrane-bound RTX was separated from the free by centrifugation, and the radioactivity was determined by scintillation counting. Equilibrium binding parameters (Ki, Bmax, and cooperativity) were determined by fitting the Hill equation to the measured values with the aid of the program Origin 6.0.
Sequence of Transient receptor potential cation channel subfamily V member 1 (O35433 whole entry): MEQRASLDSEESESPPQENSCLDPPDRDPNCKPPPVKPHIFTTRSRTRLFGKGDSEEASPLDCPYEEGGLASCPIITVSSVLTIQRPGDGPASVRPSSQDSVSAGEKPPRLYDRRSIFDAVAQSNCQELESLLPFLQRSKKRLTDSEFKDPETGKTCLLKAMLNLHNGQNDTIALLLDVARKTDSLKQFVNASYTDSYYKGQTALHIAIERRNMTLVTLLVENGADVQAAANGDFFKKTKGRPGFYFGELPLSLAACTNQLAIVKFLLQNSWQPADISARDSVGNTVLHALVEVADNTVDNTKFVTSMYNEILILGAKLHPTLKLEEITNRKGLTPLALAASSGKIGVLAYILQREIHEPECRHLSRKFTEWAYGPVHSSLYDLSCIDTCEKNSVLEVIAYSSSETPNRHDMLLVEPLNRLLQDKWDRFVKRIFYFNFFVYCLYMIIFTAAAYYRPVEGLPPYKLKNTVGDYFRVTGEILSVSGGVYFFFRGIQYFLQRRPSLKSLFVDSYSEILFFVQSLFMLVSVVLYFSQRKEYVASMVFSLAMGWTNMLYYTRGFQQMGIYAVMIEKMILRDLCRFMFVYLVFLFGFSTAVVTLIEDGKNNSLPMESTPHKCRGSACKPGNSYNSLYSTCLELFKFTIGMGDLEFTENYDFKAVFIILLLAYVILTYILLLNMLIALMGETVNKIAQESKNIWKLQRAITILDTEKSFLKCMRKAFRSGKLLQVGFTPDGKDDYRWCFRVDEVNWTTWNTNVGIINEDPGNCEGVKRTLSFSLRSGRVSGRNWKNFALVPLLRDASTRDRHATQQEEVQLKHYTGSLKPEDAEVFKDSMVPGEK
Compound `CC(C)(C)C(=O)OCC(CNC(=S)NCc1ccc(NS(C)(=O)=O)c(F)c1)Cc1ccc(C(C)(C)C)cc1` (stereo not drawn) gave an inhibition constant (Ki) of 52 nM.
Regarding `CC(C)(C)C(=O)OCC(CNC(=O)Cc1ccc(NS(C)(=O)=O)c(F)c1)Cc1ccc(C(C)(C)C)cc1` (stereo not drawn), the Ki is 440 nM.
As for `Cc1ccc(CC(CNC(=S)NCc2ccc(NS(C)(=O)=O)c(F)c2)COC(=O)C(C)(C)C)cc1C` (stereo not drawn), the affinity corresponds to a Ki of 7.8 nM.
Turning to `Cc1ccc(CC(CNC(=O)C(C)(C)c2ccc(NS(C)(=O)=O)c(F)c2)COC(=O)C(C)(C)C)cc1C` (stereo not drawn) [2-[(3,4-dimethylphenyl)methyl]-3-[2-(3-fluoro-4-methanesulfonamidophenyl)-2-methylpropanamido]propyl 2,2-dimethylpropanoate], affinity was put at a Ki of 65 nM.
Compound `Cc1ccc(CC(CNC(=O)C(C)c2ccc(NS(C)(=O)=O)c(F)c2)COC(=O)C(C)(C)C)cc1C` (stereo not drawn) [2-[(3,4-dimethylphenyl)methyl]-3-[2-(3-fluoro-4-methanesulfonamidophenyl)propanamido]propyl 2,2-dimethylpropanoate] gave an inhibition constant Ki of 10.8 nM.
`COc1cc(C(C)(C)C(=O)NCC(COC(=O)C(C)(C)C)Cc2ccc(C)c(C)c2)ccc1NS(C)(=O)=O` (stereo not drawn) [2-[(3,4-dimethylphenyl)methyl]-3-[2-(4-methanesulfonamido-3-methoxyphenyl)-2-methylpropanamido]propyl 2,2-dimethylpropanoate] gave a Ki of 133 nM.
Turning to `COc1cc(C(C)C(=O)NCC(COC(=O)C(C)(C)C)Cc2ccc(C)c(C)c2)ccc1NS(C)(=O)=O` (stereo not drawn) [2-[(3,4-dimethylphenyl)methyl]-3-[2-(4-methanesulfonamido-3-methoxyphenyl)propanamido]propyl 2,2-dimethylpropanoate], the affinity, expressed as Ki, was 13.6 nM.
For `Cc1ccc(CC(CNC(=O)C(C)(C)c2ccc(NS(C)(=O)=O)cc2)COC(=O)C(C)(C)C)cc1C` (stereo not drawn) [2-[(3,4-dimethylphenyl)methyl]-3-[2-(4-methanesulfonamidophenyl)-2-methylpropanamido]propyl 2,2-dimethylpropanoate], the affinity corresponds to a Ki of 104 nM.
Compound `Cc1ccc(CC(CNC(=O)C(C)c2ccc(NS(C)(=O)=O)cc2)COC(=O)C(C)(C)C)cc1C` (stereo not drawn) [2-[(3,4-dimethylphenyl)methyl]-3-[2-(4-methanesulfonamidophenyl)propanamido]propyl 2,2-dimethylpropanoate] yielded an inhibitory constant (Ki) of 38 nM.
`Cc1ccc(CC(CNC(=O)C2(c3ccc(NS(C)(=O)=O)c(F)c3)CC2)COC(=O)C(C)(C)C)cc1C` (stereo not drawn) [2-[(3,4-dimethylphenyl)methyl]-3-{[1-(3-fluoro-4-methanesulfonamidophenyl)cyclopropyl]formamido}propyl 2,2-dimethylpropanoate] returned an inhibitory constant (Ki) of 567 nM.
For `COc1cc(C2(C(=O)NCC(COC(=O)C(C)(C)C)Cc3ccc(C)c(C)c3)CC2)ccc1NS(C)(=O)=O` (stereo not drawn) [2-[(3,4-dimethylphenyl)methyl]-3-{[1-(4-methanesulfonamido-3-methoxyphenyl)cyclopropyl]formamido}propyl 2,2-dimethylpropanoate], the Ki came to 118 nM.
Compound `Cc1ccc(CC(CNC(=O)C2(c3ccc(NS(C)(=O)=O)cc3)CC2)COC(=O)C(C)(C)C)cc1C` (stereo not drawn) [2-[(3,4-dimethylphenyl)methyl]-3-{[1-(4-methanesulfonamidophenyl)cyclopropyl]formamido}propyl 2,2-dimethylpropanoate] displayed a Ki of 197 nM.
As to `CC(C(=O)NCC(COC(=O)C(C)(C)C)Cc1ccc(C(C)(C)C)cc1)c1ccc(NS(C)(=O)=O)c(Cl)c1` (stereo not drawn) [2-[(4-tert-butylphenyl)methyl]-3-[2-(3-chloro-4-methanesulfonamidophenyl)propanamido]propyl 2,2-dimethylpropanoate], the inhibition constant Ki was 12.3 nM.
On to `CC(C(=O)NCC(COC(=O)C(C)(C)C)Cc1ccc(C(C)(C)C)cc1)c1ccc(NS(C)(=O)=O)cc1` (stereo not drawn) [2-[(4-tert-butylphenyl)methyl]-3-[2-(4-methanesulfonamidophenyl)propanamido]propyl 2,2-dimethylpropanoate], for which the Ki was found to be 52 nM.
Compound `Cc1ccc(CC(CNC(=O)C(C)c2ccc(NS(C)(=O)=O)c(Cl)c2)COC(=O)C(C)(C)C)cc1C` (stereo not drawn) [3-[2-(3-chloro-4-methanesulfonamidophenyl)propanamido]-2-[(3,4-dimethylphenyl)methyl]propyl 2,2-dimethylpropanoate] gave a Ki of 36 nM.
For `C[C@@H](C(=O)NC[C@H](COC(=O)C(C)(C)C)Cc1ccc(C(C)(C)C)cc1)c1ccc(NS(C)(=O)=O)c(F)c1` [(2R)-2-[(4-tert-butylphenyl)methyl]-3-[(2R)-2-(3-fluoro-4-methanesulfonamidophenyl)propanamido]propyl 2,2-dimethylpropanoate], the Ki was 30.3 nM.
Take `C[C@H](C(=O)NC[C@H](COC(=O)C(C)(C)C)Cc1ccc(C(C)(C)C)cc1)c1ccc(NS(C)(=O)=O)c(Cl)c1` [(2R)-2-[(4-tert-butylphenyl)methyl]-3-[(2S)-2-(3-chloro-4-methanesulfonamidophenyl)propanamido]propyl 2,2-dimethylpropanoate]: the Ki was found to be 5.2 nM.
As to `C[C@H](C(=O)NC[C@H](COC(=O)C(C)(C)C)Cc1ccc(C(C)(C)C)cc1)c1ccc(NS(C)(=O)=O)c(F)c1` [(2R)-2-[(4-tert-butylphenyl)methyl]-3-[(2S)-2-(3-fluoro-4-methanesulfonamidophenyl)propanamido]propyl 2,2-dimethylpropanoate], the affinity corresponds to a Ki of 0.58 nM.
With `C[C@@H](C(=O)NC[C@H](COC(=O)C(C)(C)C)Cc1ccccc1)c1ccc(NS(C)(=O)=O)c(F)c1` [(2R)-2-benzyl-3-[(2R)-2-(3-fluoro-4-methanesulfonamidophenyl)propanamido]propyl 2,2-dimethylpropanoate], the Ki is 98 nM.
Same read-out and setting: in the case of `C[C@H](C(=O)NC[C@H](COC(=O)C(C)(C)C)Cc1ccccc1)c1ccc(NS(C)(=O)=O)c(F)c1` [(2R)-2-benzyl-3-[(2S)-2-(3-fluoro-4-methanesulfonamidophenyl)propanamido]propyl 2,2-dimethylpropanoate] it was 8.56 nM; in that of `C[C@@H](C(=O)NC[C@@H](COC(=O)C(C)(C)C)Cc1ccc(C(C)(C)C)cc1)c1ccc(NS(C)(=O)=O)c(F)c1` [(2S)-2-[(4-tert-butylphenyl)methyl]-3-[(2R)-2-(3-fluoro-4-methanesulfonamidophenyl)propanamido]propyl 2,2-dimethylpropanoate], 142 nM; in that of `C[C@H](C(=O)NC[C@@H](COC(=O)C(C)(C)C)Cc1ccc(C(C)(C)C)cc1)c1ccc(NS(C)(=O)=O)c(Cl)c1` [(2S)-2-[(4-tert-butylphenyl)methyl]-3-[(2S)-2-(3-chloro-4-methanesulfonamidophenyl)propanamido]propyl 2,2-dimethylpropanoate], 12.1 nM.
As to `C[C@H](C(=O)NC[C@@H](COC(=O)C(C)(C)C)Cc1ccc(C(C)(C)C)cc1)c1ccc(NS(C)(=O)=O)c(F)c1` [(2S)-2-[(4-tert-butylphenyl)methyl]-3-[(2S)-2-(3-fluoro-4-methanesulfonamidophenyl)propanamido]propyl 2,2-dimethylpropanoate], the affinity corresponds to a Ki of 10.9 nM.
Regarding `C[C@@H](C(=O)NC[C@@H](COC(=O)C(C)(C)C)Cc1ccccc1)c1ccc(NS(C)(=O)=O)c(F)c1` [(2S)-2-benzyl-3-[(2R)-2-(3-fluoro-4-methanesulfonamidophenyl)propanamido]propyl 2,2-dimethylpropanoate], the affinity corresponds to a Ki of 205 nM.
As for `C[C@H](C(=O)NC[C@@H](COC(=O)C(C)(C)C)Cc1ccccc1)c1ccc(NS(C)(=O)=O)c(F)c1` [(2S)-2-benzyl-3-[(2S)-2-(3-fluoro-4-methanesulfonamidophenyl)propanamido]propyl 2,2-dimethylpropanoate], the Ki stood at 10 nM.
As to `C=C(C)[C@]12C[C@@H](C)[C@@]34OC(Cc5ccccc5)(O[C@@H]1[C@@H]3C=C(COC(=O)Cc1cc(I)c(O)c(OC)c1)C[C@]1(O)C(=O)C(C)=C[C@@H]41)O2` [[(1R,2R,6R,10S,11R,15R,17R)-13-benzyl-6-hydroxy-4,17-dimethyl-5-oxo-15-(prop-1-en-2-yl)-12,14,18-trioxapentacyclo[11.4.1.0^{1,10}.0^{2,6}.0^{11,15}]octadeca-3,8-dien-8-yl]methyl 2-(4-hydroxy-3-iodo-5-methoxyphenyl)acetate], the affinity, expressed as Ki, was 12.2 nM.
For `CC(C(=O)NCC(COC(=O)C(C)(C)C)Cc1ccc(C(C)(C)C)cc1)c1ccc(NS(C)(=O)=O)c(F)c1` (stereo not drawn) [diastereomeric mixture], affinity was put at a Ki of 3.24 nM.

Still in this test, the particulars now being: pH 7.4; 37 °C; read-out: Ki.
Regarding `C=C(C)[C@]12C[C@@H](C)[C@@]34OC(Cc5ccccc5)(O[C@@H]1[C@@H]3C=C(COC(=O)Cc1cc(I)c(O)c(OC)c1)C[C@]1(O)C(=O)C(C)=C[C@@H]41)O2` [[(1R,2R,6R,10S,11R,15R,17R)-13-benzyl-6-hydroxy-4,17-dimethyl-5-oxo-15-(prop-1-en-2-yl)-12,14,18-trioxapentacyclo[11.4.1.0^{1,10}.0^{2,6}.0^{11,15}]octadeca-3,8-dien-8-yl]methyl 2-(4-hydroxy-3-iodo-5-methoxyphenyl)acetate], the Ki was found to be 0.61 nM.
